Measured values: patent EP3578180A1, “MODULATORS OF SERYL-TRNA SYNTHASE AND PHARMACEUTICAL COMPOSITIONS COMPRISING THE SAME FOR INCREASING CELL HYPOXIC TOLERANCE” (Centre National de la Recherche Scientifique (CNRS), priority 2018, dated 2019)
Like-named read-outs stand apart in the source and are kept apart here.

Key:
PCT cells = test: LIVE/DEAD cell viability of kidney cells under anoxia; type: cell-based, murine
Protocol: HT22 mouse hippocampal neuronal cells were cultured in Dulbecco's modified Eagle's medium (DMEM; Gibco) supplemented with 10% FBS (Gibco), 100U/ml streptomycin, 100U/ml penicillin at 37 °C in 5% CO2/95% air. Renal PCT cells were obtained from primary cultures of murine proximal tubule segments and cultured as previously described (Melis, N. et al. Targeting eIF5A Hypusination Prevents Anoxic Cell Death through Mitochondrial Silencing and Improves Kidney Transplant Outcome. J Am Soc Nephrol 28, 811-822, doi:10.1681/ASN.2016010012 (2017)). Hypoxic or anoxic conditions were created by maintaining cell cultures at 37°C in a sealed "Bug-Box" anaerobic workstation (Ruskin Technologies). Oxygen Glucose Deprivation (OGD) was induced on HT22 cells placing them in glucose-free Hepes balanced salt solution without glucose (HBSS: NaCl 116mM, KCl 5.4mM, CaCl2 1.8mM, MgSO4 0.8mM, NAH2PO4 1mM, NaHCO3 26.2mM,; pH 7.2-7.4) in an hypoxic chamber filled with 98.5% N2 and 1.5% CO2 at 37°C for 3h. Upon removal of the cultures from the chamber, the growth medium was changed back to normal medium.
The Fluorescent LIVE/DEAD® Cell Viability/Cytotoxicity Assay Kit (Invitrogen, France) was used on PCT cells (24-well plates) according to the manufacturer's protocol. Fluorescent micrographs were recorded using an observer D1 microscope (Zeiss).
150,000 PCT cells were seeded in Petri dishes and transfected 24 h later with 50 nM serRS pooled siRNAs (Sigma MISSION®esiRNA targeting mouse serRS: EMU081851) using Lipofectamine™ 3000 transfection reagent (Invitrogen). Cells were exposed to various experimental procedures 24-48 h post-transfection, as described in the text.

mice = test: tMCAo stroke model, infarct volume (cresyl violet); type: in vivo; settings: SerHX pretreatment, '15 mM serHX group'; 60 min tMCAo; 24 h post-reperfusion; Fig.3C
Protocol: Male 7-week old C57BL/6J mice (Janvier France Breeding) were housed in a temperature- and humidity-controlled animal facility with a 12-h light-dark cycle. Food and water were available ad libitum. All animal care and use were performed with in accordance to the policies of European Community Directive 86/609/EEC. All efforts were made to minimize animal suffering and the number of animals used.
tMCAO was performed 30 min after the final injection using a 6-0 coated filament (Doccol), as previously described (Bourourou, M., Heurteaux, C. & Blondeau, N. Alpha-linolenic acid given as enteral or parenteral nutritional intervention against sensorimotor and cognitive deficits in a mouse model of ischemic stroke. Neuropharmacology 108, 60-72, doi:10.1016/j.neuropharm.2016.04.040 (2016)). Control of tMCAo severity and reperfusion was evaluated monitoring the regional cerebral blood flow by laser-Doppler flowmetry. Infarct volume (mm^3) was mesured 24 h post-reperfusion on coronal frozen brain sections ([…]) stained by 1% cresyl violet in 0.25% acetic acid using a computer image analysis system.
Animals were randomly assigned to vehicle or serHX groups prepared for 3 experimental protocols. Protocol 1: Vehicle and serHX were administrated intraperitoneally (416 mM, 150µl IP) 48, 24, 2h before a 60min tMCAo. […]

N[C@@H](CO)C(=O)O [serine]
renal cell survival after 24 h of anoxia (in words) (PCT cells; anoxia 24 h, <0.1% O2, Fig.1A): no effect

C[C@@H]1C[C@@H]([C@H](O)CC2CC(=O)NC(=O)C2)C(=O)[C@@H](C)C1 [cycloheximide]
living kidney cells (PCT cells): 64%
renal cell survival after 24 h of anoxia (in words) (PCT cells): increased renal cell survival

NC(CO)C(=O)NO (centres unmarked) [serine hydroxamate]
living kidney cells (PCT cells; anoxia 24 h, <0.1% O2, cells treated with the inhibitor beforehand, CHX 1 to 10 pg/ml, Fig.1A): 95%
reduction of infarct volumes compared with the vehicle group (mice): 30%
